Literature values in patent EP1677774B1, “CITICOLINE-BASED COMPOSITION IN COMBINATION WITH VITAMINS FOR THE PREVENTION AND TREATMENT OF EYE PATHOLOGIES” (Bausch & Lomb IOM S.p.A., priority 2003, dated 2005).

What was measured:
glaucomatous patients = details: intramuscular administration

Structure (SMILES): C[N+](C)(C)CCOP(=O)(O)OP(=O)([O-])OC[C@H]1O[C@@H](n2ccc(N)nc2=O)[C@H](O)[C@@H]1O [CDP-choline, cytidine-5'-diphosphocholine]
- metabolic fate after administration (intravenous or oral administration): immediately hydrolysed and converted into the two circulating metabolites cytidine and choline
- calculated bioavailability for oral administration (oral compared with intravenous administration): virtually the same as the one calculated for intravenous administration
- effect on the optic nerve (perimetric measures) (glaucomatous patients; long-term clinical studies): positive effect on the damaged optic nerve
- retinal and supraretinal signal conduction (glaucomatous patients; short-term clinical study): functional improvement
